In patent US7723364B2, “N-[2-(2-pyridinyl) ethyl]benzamide compounds and their use as fungicides” (Bayer Cropscience SA, priority 2003, dated 2010):

Experiments:
Alternaria brassicae = experiment: In vivo test on Alternaria brassicae (leaf spot of crucifers) on radish plants; settings: for pest or weed control at 330 ppm: Alternaria brassicae, dose of 330 ppm, radish plants sprayed 24 hours before contamination, grading 6 to 7 days after contamination vs control plants, read-out: good (at least 50%) or total protection; for effectiveness on Alternaria brassicae: comparison compounds of WO 01/11965, 330 ppm
Description: In Vivo Test on Alternaria brassicae (Leaf Spot of Crucifers)
(§1) The active ingredient tested is prepared by potter homogenisation in a concentrated suspension type formulation at 100 g/l. This suspension is then diluted with water to obtain the desired active material concentration.
Radish plants (Pernot variety) in starter cups, sown on a 50/50 peat soil-pozzolana substrate and grown at 18-20° C., are treated at the cotyledon stage by spraying with the aqueous suspension described above.
(§2) Plants, used as controls, are treated with an aqueous solution not containing the active material.
After 24 hours, the plants are contaminated by spraying them with an aqueous suspension of Alternaria brassicae spores (40,000 spores per cm^3). The spores are collected from a 12 to 13 days-old culture.
The contaminated radish plants are incubated for 6-7 days at about 18° C., under a humid atmosphere.
Grading is carried out 6 to 7 days after the contamination, in comparison with the control plants.

Botrytis cinerea = experiment: In vivo test on Botrytis cinerea (cucumber grey mould); settings: for pest or weed control at 330 ppm: Botrytis cinerea, dose of 330 ppm, cucumber plants sprayed 24 hours before contamination, grading 5/7 days after contamination vs control plants, read-out: good (at least 50%) or total protection; for effectiveness on Botrytis cinerea: comparison compounds of WO 01/11965, 330 ppm
Description: In Vivo Test on Botrytis cinerea (Cucumber Grey Mould)
as §1
(§3) Cucumber plants (Marketer variety) in starter cups, sown on a 50/50 peat soil-pozzolana substrate and grown at 18-20° C., are treated at the cotyledon Z11 stage by spraying with the aqueous suspension described above. Plants, used as controls, are treated with an aqueous solution not containing the active material.
After 24 hours, the plants are contaminated by depositing drops of an aqueous suspension of Botrytis cinerea spores (150,000 spores per ml) on upper surface of the leaves. The spores are collected from a 15-day-old culture and are suspended in a nutrient solution composed of:
The contaminated cucumber plants are settled for 5/7 days in a climatic room at 15-11° C. (day/night) and at 80% relative humidity.
Grading is carried out 5/7 days after the contamination, in comparison with the control plants. Under these conditions, good (at least 50%) or total protection is observed at a dose of 330 ppm with the following compounds: 1, 2, 3, 4, 5, 6, 9, 10, 13, 18, 21, 22, 23, 25, 26, 27, 28, 29, 32, 34, 35, 38, 40, 43, 44, 45, 46, 47, 50, 51, 52, 53, 57 and 62.

Pyrenophora teres = experiment: In vivo test on Pyrenophora teres (barley net blotch); settings: 288 h, dose of 330 ppm, barley plants sprayed 24 hours before contamination, grading 12 days after contamination vs control plants, read-out: good (at least 50%) or total protection
Description: In Vivo Test on Pyrenophora teres (Barley Net Blotch)
as §1
as §3, with “Barley” for “Cucumber”, “(Express” for “(Marketer”, “12°” for “18-20°”, “1-leaf” for “cotyledon Z11”, “stage (10 cm tall)” for “stage”
After 24 hours, the plants are contaminated by spraying them with an aqueous suspension of Pyrenophora teres spores (12,000 spores per ml). The spores are collected from a 12-day-old culture. The contaminated barley plants are incubated for 24 hours at about 20° C. and at 100% relative humidity, and then for 12 days at 80% relative humidity.

[1] = test system: Erysiphe graminis f. sp. tritici; experiment: In vivo test on Erysiphe graminis f. sp. tritici (powdery mildew of wheat); settings: Blumeria graminis; dose of 330 ppm; wheat plants sprayed 24 hours before contamination; grading 7 to 14 days after contamination vs control plants; read-out: good (at least 50%) or total protection
Description: In Vivo Test on Erysiphe graminis f. sp. tritici (Powdery Mildew of Wheat)
as §1
Wheat plants (Audace variety) in starter cups, sown on 50/50 peat soil-pozzolana substrate and grown at 12° C., are treated at the 1-leaf stage (10 cm tall) by spraying with the aqueous suspension described above.
as §2
After 24 hours, the plants are contaminated by dusting them with Erysiphe graminis f. sp. tritici spores, the dusting being carried out using diseased plants.
Grading is carried out 7 to 14 days after the contamination, in comparison with the control plants.
Under these conditions, good (at least 50%) or total protection is observed at a dose of 330 ppm with the following compounds: 1, 3, 4, 5, 6, 8, 9, 10, 11, 12, 13, 18, 38, 50, 43 and 45.

SMILES | pest or weed control at 330 ppm (Alternaria brassicae) | pest or weed control at 330 ppm (Botrytis cinerea) | pest or weed control at 330 ppm (Pyrenophora teres) | other results
O=C(NCCc1ncc(Cl)cc1Cl)c1ccccc1Cl [Compound 2] | ≥ 50% | ≥ 50% | ≥ 50% | 
Cc1ccccc1C(=O)NCCc1ncc(Cl)cc1Cl [Compound 3] | ≥ 50% | ≥ 50% | ≥ 50% | pest or weed control at 330 ppm [1]: ≥ 50%
O=C(NCCc1ncccc1Cl)c1ccccc1C(F)(F)F [Compound 6, N-[2-(3-chloro-2-pyridinyl)ethyl]-2-(trifluoromethyl)benzamide] | ≥ 50% | ≥ 50% |  | pest or weed control at 330 ppm [1]: ≥ 50%
CC(CNC(=O)c1cc(F)ccc1Cl)c1ccc(Cl)cn1 (centres unmarked) [Compound 7] | ≥ 50% |  |  | 
O=C(NCCc1nc(F)c(F)cc1F)c1ccccc1C(F)(F)F [Compound 12] | ≥ 50% |  | ≥ 50% | pest or weed control at 330 ppm [1]: ≥ 50%
Cc1ccc(CCNC(=O)c2ccccc2I)nc1 [Compound 14, N-[2-(5-methyl-2-pyridinyl)ethyl]-2-(iodo)benzamide] | ≥ 50% |  |  | 
O=C(NCCc1ccc(Cl)cn1)c1ccccc1C(F)(F)F [Compound 20] | ≥ 50% |  |  | 
O=C(NCCc1ncc(Cl)cc1F)c1ccccc1I [Compound 21] | ≥ 50% | ≥ 50% | ≥ 50% | 
O=C(NCCc1nc(Cl)c(Cl)cc1Cl)c1ccccc1I [Compound 22] |  | ≥ 50% |  | 
O=C(NCCc1nc(Cl)c(Cl)cc1Cl)c1ccccc1C(F)(F)F [Compound 23] |  | ≥ 50% |  | 
O=C(NCCc1ccc(Cl)cn1)c1ccccc1I [Compound 24] | ≥ 50% |  |  | 
O=C(NCCc1ncc(Cl)cc1F)c1ccccc1C(F)F [Compound 29] |  | ≥ 50% |  | 
O=C(NCCc1nc(F)c(Cl)cc1Cl)c1ccccc1I [Compound 34] | ≥ 50% | ≥ 50% | ≥ 50% | 
O=C(NCCc1nc(Cl)ccc1Cl)c1ccccc1C(F)(F)F [Compound 35] | ≥ 50% | ≥ 50% | ≥ 50% | 
O=C(NCCc1nc(Cl)ccc1Cl)c1ccccc1I [Compound 36] | ≥ 50% |  | ≥ 50% | 
O=C(NCCc1nc(Cl)ccc1Cl)c1ccccc1Br [Compound 37] | ≥ 50% |  | ≥ 50% | 
O=C(NCCc1ccc(Cl)cn1)c1ccccc1Br [Compound 39] |  |  | ≥ 50% | 
O=C(NCCc1ncc(Cl)cc1Br)c1ccccc1I [Compound 40] | ≥ 50% | ≥ 50% | ≥ 50% | 
O=C(NCCc1nc(Cl)ccc1Cl)c1ccccc1C(F)F [Compound 41] | ≥ 50% |  | ≥ 50% | 
Cc1c(F)c(F)nc(CCNC(=O)c2ccccc2C(F)(F)F)c1F [Compound 42] |  |  | ≥ 50% | 

SMILES | pest or weed control at 330 ppm (Alternaria brassicae) | pest or weed control at 330 ppm (Botrytis cinerea) | pest or weed control at 330 ppm (Pyrenophora teres) | other results
O=C(NCCc1nc(F)c(F)cc1F)c1ccccc1Br [Compound 47] | ≥ 50% | ≥ 50% | ≥ 50% | 
O=C(NCCc1nc(F)c(F)cc1F)c1ccccc1Cl [Compound 48] |  |  | ≥ 50% | 
Cc1ccccc1C(=O)NCCc1nc(F)c(F)c(C)c1F [Compound 49] | ≥ 50% |  | ≥ 50% | 
O=C(NCCc1ncc(Br)cc1Cl)c1ccccc1Br [Compound 52] | ≥ 50% | ≥ 50% | ≥ 50% | 
Cc1ccc(Cl)c(CCNC(=O)c2ccccc2C(F)(F)F)n1 [Compound 56] | ≥ 50% |  | ≥ 50% | 
O=C(NCCc1nc(F)c(Cl)cc1Cl)c1ccccc1C(F)(F)F [Compound 57] | ≥ 50% | ≥ 50% | ≥ 50% | 
O=C(NCCc1nc(F)c(Cl)cc1Cl)c1ccccc1Br [Compound 58] | ≥ 50% |  | ≥ 50% | 
O=C(NCCc1nc(F)c(Cl)cc1Cl)c1ccccc1Cl [Compound 59] | ≥ 50% |  | ≥ 50% | 
CC(CNC(=O)c1ccccc1C(F)(F)F)c1ncc(Cl)cc1Cl (centres unmarked) [Compound 60] | ≥ 50% |  | ≥ 50% | 
CC(CNC(=O)c1ccccc1I)c1ncc(Cl)cc1Cl (centres unmarked) [Compound 61] | ≥ 50% |  | ≥ 50% | 
O=C(NCCc1nc(F)c(Cl)cc1F)c1ccccc1C(F)(F)F [Compound 62] | ≥ 50% | ≥ 50% | ≥ 50% | 
O=C(NCCc1nc(F)c(Cl)cc1F)c1ccccc1I [Compound 63] | ≥ 50% |  | ≥ 50% | 
CC(CNC(=O)c1ccccc1I)c1ccc(Cl)cn1 (centres unmarked) [Compound 65] |  |  | ≥ 50% | 
CCNC(=O)C(Cc1ncc(C(F)(F)F)cc1Cl)NC(=O)c1ccccc1 (centres unmarked) [compound 304, N-{1-ethylcarbamoyl-2-[3-chloro-5-(trifluoromethyl)-2-pyridinyl]-ethyl}-benzamide, reference compound] |  |  |  | effectiveness on Botrytis cinerea (Botrytis cinerea): zero effectiveness
CCNC(=O)C(Cc1ncc(C(F)(F)F)cc1Cl)NC(=O)c1ccc(Cl)cc1 (centres unmarked) [compound 306, N-{1-ethylcarbamoyl-2-[3-chloro-5-(trifluoromethyl)-2-pyridinyl]ethyl}-4-chlorobenzamide, reference compound] |  |  |  | effectiveness on Botrytis cinerea (Botrytis cinerea): zero effectiveness
CCNC(=O)C(Cc1ncc(C(F)(F)F)cc1Cl)NC(=O)c1cccc([N+](=O)[O-])c1 (centres unmarked) [compound 307, N-{1-ethylcarbamoyl-2-[3-chloro-5-(trifluoromethyl)-2-pyridinyl]ethyl}-3-nitrobenzamide, reference compound] |  |  |  | effectiveness on Alternaria brassicae (Alternaria brassicae): poor effectiveness; effectiveness on Botrytis cinerea (Botrytis cinerea): zero effectiveness
CCNC(=O)C(Cc1ncc(C(F)(F)F)cc1Cl)NC(=O)c1ccccc1Br (centres unmarked) [compound 310, N-{1-ethylcarbamoyl-2-[3-chloro-5-(trifluoromethyl)-2-pyridinyl]ethyl}-2-bromobenzamide, reference compound] |  |  |  | effectiveness on Botrytis cinerea (Botrytis cinerea): zero effectiveness
CNC(=O)C(Cc1ncc(C(F)(F)F)cc1Cl)NC(=O)c1ccccc1 (centres unmarked) [compound 314, N-{1-methylcarbamoyl-2-[3-chloro-5-(trifluoromethyl)-2-pyridinyl]ethyl}-benzamide, reference compound] |  |  |  | effectiveness on Botrytis cinerea (Botrytis cinerea): zero effectiveness
CNC(=O)C(Cc1ncc(C(F)(F)F)cc1Cl)NC(=O)c1ccc(OC)cc1 (centres unmarked) [compound 315, N-{1-methylcarbamoyl-2-[3-chloro-5-(trifluoromethyl)-2-pyridinyl]ethyl}-4-methoxybenzamide, reference compound] |  |  |  | effectiveness on Botrytis cinerea (Botrytis cinerea): zero effectiveness
CNC(=O)C(Cc1ncc(C(F)(F)F)cc1Cl)NC(=O)c1ccc(-c2ccccc2)cc1 (centres unmarked) [compound 316, N-{1-methylcarbamoyl-2-[3-chloro-5-(trifluoromethyl)-2-pyridinyl]-ethyl}-4-phenylbenzamide, reference compound] |  |  |  | effectiveness on Alternaria brassicae (Alternaria brassicae): poor effectiveness; effectiveness on Botrytis cinerea (Botrytis cinerea): zero effectiveness
